Data: ChEMBL document CHEMBL3991601, “The target landscape of clinical kinase drugs” (Science, 2017)
pKd: −log10 of the molar value. Activity calls are given as the source filed them. Rule as the data show it, for most assays here: actives have a measured Kd and inactives only a lower limit.
Also: in the data inactive means no Kd found up to 30 µM.

These compounds were tested against T1, Membrane-associated tyrosine- and threonine-specific cdc2-inhibitory kinase (Homo sapiens, UniProt Q99640).
T1 sequence (Q99640 whole entry): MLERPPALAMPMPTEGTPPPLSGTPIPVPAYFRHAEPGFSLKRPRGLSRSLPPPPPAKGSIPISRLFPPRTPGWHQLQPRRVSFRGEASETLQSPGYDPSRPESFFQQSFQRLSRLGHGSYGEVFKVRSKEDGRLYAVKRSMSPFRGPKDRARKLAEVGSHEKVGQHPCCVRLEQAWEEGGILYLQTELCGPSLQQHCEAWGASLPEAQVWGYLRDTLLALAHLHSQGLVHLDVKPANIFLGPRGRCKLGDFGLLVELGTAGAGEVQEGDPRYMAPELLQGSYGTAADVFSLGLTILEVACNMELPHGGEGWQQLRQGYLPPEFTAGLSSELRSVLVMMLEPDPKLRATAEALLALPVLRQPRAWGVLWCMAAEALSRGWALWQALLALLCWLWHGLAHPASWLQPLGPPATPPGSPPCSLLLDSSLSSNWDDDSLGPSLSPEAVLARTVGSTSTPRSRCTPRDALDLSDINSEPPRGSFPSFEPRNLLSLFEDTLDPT
With `Cc1cc(-c2cc(O)ccc2Cl)cc2nnc(Nc3ccc(OCCN4CCCC4)cc3)nc12` the Kd was > 30 µM (inactive).
In the case of `CCN1CCN(Cc2ccc(-c3cc4c(N[C@H](C)c5ccccc5)ncnc4[nH]3)cc2)CC1` [AEE-788], the Kd was > 30 µM (inactive).
With `Cn1ncc(Cl)c1-c1cc(C(=O)N[C@H](CN)Cc2cccc(F)c2)sc1Cl` [AFURESERTIB] the Kd was > 30 µM (inactive).

Each compound was assayed against Cyclin-dependent kinase 7 (Homo sapiens, UniProt P50613).
Sequence of Cyclin-dependent kinase 7 (P50613 whole entry): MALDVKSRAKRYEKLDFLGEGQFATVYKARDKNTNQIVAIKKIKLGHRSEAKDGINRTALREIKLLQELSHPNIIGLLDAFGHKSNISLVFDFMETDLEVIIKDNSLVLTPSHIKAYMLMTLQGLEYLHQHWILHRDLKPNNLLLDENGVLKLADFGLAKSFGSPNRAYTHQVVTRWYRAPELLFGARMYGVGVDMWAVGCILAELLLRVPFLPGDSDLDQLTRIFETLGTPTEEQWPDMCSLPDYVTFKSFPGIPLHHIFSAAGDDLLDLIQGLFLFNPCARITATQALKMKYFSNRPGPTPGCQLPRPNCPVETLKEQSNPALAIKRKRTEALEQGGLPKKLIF
With `Cc1cc(-c2cc(O)ccc2Cl)cc2nnc(Nc3ccc(OCCN4CCCC4)cc3)nc12` the Kd was > 30 µM (inactive).
For `CCN1CCN(Cc2ccc(-c3cc4c(N[C@H](C)c5ccccc5)ncnc4[nH]3)cc2)CC1` [AEE-788], the Kd was > 30 µM (inactive).
For `Cn1ncc(Cl)c1-c1cc(C(=O)N[C@H](CN)Cc2cccc(F)c2)sc1Cl` [AFURESERTIB], the Kd was > 30 µM (inactive).

The compounds below were run against T2, Very long-chain specific acyl-CoA dehydrogenase, mitochondrial (Homo sapiens, UniProt P49748).
T2 sequence (P49748 whole entry): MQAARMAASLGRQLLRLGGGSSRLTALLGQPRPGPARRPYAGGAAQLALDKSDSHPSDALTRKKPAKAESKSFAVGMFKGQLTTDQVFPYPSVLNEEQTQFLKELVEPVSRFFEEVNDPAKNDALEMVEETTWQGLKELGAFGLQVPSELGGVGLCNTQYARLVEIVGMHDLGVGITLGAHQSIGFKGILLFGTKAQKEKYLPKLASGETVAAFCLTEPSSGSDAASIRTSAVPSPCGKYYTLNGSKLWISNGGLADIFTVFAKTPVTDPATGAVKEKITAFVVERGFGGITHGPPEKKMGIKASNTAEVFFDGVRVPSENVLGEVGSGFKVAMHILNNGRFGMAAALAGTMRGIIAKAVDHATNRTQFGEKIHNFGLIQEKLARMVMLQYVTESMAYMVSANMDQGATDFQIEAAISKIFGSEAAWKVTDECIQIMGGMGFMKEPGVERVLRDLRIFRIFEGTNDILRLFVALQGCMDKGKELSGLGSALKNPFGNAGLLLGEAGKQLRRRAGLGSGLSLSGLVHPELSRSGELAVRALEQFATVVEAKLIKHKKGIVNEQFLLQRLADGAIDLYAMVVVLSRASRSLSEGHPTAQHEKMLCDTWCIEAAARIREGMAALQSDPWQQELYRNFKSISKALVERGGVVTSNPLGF
In the case of `Cc1cc(-c2cc(O)ccc2Cl)cc2nnc(Nc3ccc(OCCN4CCCC4)cc3)nc12`, the Kd was > 30 µM (inactive).
`CCN1CCN(Cc2ccc(-c3cc4c(N[C@H](C)c5ccccc5)ncnc4[nH]3)cc2)CC1` [AEE-788] was tested, and the Kd was > 30 µM (inactive).
`Cn1ncc(Cl)c1-c1cc(C(=O)N[C@H](CN)Cc2cccc(F)c2)sc1Cl` [AFURESERTIB] was tested, and the Kd was > 30 µM (inactive).

Each compound was assayed against Insulin receptor (Homo sapiens, UniProt P06213).
Sequence of Insulin receptor (P06213 28-758 limits assumed): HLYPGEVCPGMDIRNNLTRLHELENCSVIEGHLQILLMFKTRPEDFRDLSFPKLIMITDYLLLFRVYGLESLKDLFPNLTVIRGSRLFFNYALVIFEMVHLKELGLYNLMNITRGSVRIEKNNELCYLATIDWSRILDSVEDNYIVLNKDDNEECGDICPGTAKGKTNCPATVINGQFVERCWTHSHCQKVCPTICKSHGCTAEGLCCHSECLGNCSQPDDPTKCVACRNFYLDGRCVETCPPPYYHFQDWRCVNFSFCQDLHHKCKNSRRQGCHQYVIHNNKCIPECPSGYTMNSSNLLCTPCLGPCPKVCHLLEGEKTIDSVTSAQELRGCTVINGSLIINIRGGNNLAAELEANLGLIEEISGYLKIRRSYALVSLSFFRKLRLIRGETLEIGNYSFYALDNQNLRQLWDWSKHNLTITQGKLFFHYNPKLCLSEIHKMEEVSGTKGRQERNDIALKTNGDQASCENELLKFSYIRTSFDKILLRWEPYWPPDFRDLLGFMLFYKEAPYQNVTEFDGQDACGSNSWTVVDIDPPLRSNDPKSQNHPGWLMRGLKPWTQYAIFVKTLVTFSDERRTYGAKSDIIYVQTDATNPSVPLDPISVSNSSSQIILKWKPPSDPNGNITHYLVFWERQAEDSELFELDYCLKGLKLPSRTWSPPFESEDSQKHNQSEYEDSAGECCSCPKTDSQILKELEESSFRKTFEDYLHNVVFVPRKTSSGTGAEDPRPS
Sequence of Insulin receptor (P06213 763-1382 limits assumed): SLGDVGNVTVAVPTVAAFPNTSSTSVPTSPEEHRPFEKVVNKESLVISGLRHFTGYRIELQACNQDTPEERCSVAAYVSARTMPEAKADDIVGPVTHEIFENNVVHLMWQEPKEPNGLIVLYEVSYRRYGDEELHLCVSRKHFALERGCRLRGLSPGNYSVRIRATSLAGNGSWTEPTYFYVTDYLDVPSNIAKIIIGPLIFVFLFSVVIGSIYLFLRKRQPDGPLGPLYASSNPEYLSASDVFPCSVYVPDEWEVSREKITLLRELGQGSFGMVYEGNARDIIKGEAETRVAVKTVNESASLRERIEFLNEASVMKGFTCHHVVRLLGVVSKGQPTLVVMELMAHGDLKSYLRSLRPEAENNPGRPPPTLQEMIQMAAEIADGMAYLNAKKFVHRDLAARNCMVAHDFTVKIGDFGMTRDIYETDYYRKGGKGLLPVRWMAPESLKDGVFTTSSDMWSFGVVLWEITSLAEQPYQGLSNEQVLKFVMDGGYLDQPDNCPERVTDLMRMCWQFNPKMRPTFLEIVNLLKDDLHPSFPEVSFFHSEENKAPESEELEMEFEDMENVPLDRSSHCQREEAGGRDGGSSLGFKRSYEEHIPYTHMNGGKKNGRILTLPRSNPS
For `Cc1cc(-c2cc(O)ccc2Cl)cc2nnc(Nc3ccc(OCCN4CCCC4)cc3)nc12`, the Kd was > 30 µM (inactive).
In the case of `CCN1CCN(Cc2ccc(-c3cc4c(N[C@H](C)c5ccccc5)ncnc4[nH]3)cc2)CC1` [AEE-788], the Kd was > 30 µM (inactive).
With `Cn1ncc(Cl)c1-c1cc(C(=O)N[C@H](CN)Cc2cccc(F)c2)sc1Cl` [AFURESERTIB] the Kd was > 30 µM (inactive).

Each compound was assayed against Cyclin-dependent kinase 5 (Homo sapiens, UniProt Q00535).
Sequence of Cyclin-dependent kinase 5 (Q00535 whole entry): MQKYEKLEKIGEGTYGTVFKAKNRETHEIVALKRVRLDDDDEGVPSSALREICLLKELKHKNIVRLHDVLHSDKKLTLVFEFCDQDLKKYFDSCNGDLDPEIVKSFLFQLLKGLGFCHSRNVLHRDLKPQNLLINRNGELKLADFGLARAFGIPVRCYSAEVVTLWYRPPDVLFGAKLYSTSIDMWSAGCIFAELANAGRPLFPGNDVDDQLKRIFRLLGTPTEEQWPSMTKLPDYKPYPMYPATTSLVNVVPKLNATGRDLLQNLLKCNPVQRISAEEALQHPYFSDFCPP
With `Cc1cc(-c2cc(O)ccc2Cl)cc2nnc(Nc3ccc(OCCN4CCCC4)cc3)nc12` the Kd was > 30 µM (inactive).
`CCN1CCN(Cc2ccc(-c3cc4c(N[C@H](C)c5ccccc5)ncnc4[nH]3)cc2)CC1` [AEE-788] was tested, and the Kd was > 30 µM (inactive).
`Cn1ncc(Cl)c1-c1cc(C(=O)N[C@H](CN)Cc2cccc(F)c2)sc1Cl` [AFURESERTIB] was tested, and the Kd was > 30 µM (inactive).

Each compound was assayed against Aurora kinase B (Homo sapiens, UniProt Q96GD4).
With `Cc1cc(-c2cc(O)ccc2Cl)cc2nnc(Nc3ccc(OCCN4CCCC4)cc3)nc12` the Kd was > 30 µM (inactive).
In the case of `CCN1CCN(Cc2ccc(-c3cc4c(N[C@H](C)c5ccccc5)ncnc4[nH]3)cc2)CC1` [AEE-788], the Kd was > 30 µM (inactive).
For `Cn1ncc(Cl)c1-c1cc(C(=O)N[C@H](CN)Cc2cccc(F)c2)sc1Cl` [AFURESERTIB], the Kd was > 30 µM (inactive).

What follows are compounds tested against DNA topoisomerase 2-alpha (Homo sapiens, UniProt P11388).
In the case of `Cc1cc(-c2cc(O)ccc2Cl)cc2nnc(Nc3ccc(OCCN4CCCC4)cc3)nc12`, the Kd was > 30 µM (inactive).
In the case of `CCN1CCN(Cc2ccc(-c3cc4c(N[C@H](C)c5ccccc5)ncnc4[nH]3)cc2)CC1` [AEE-788], the Kd was > 30 µM (inactive).
For `Cn1ncc(Cl)c1-c1cc(C(=O)N[C@H](CN)Cc2cccc(F)c2)sc1Cl` [AFURESERTIB], the Kd was > 30 µM (inactive).

Each compound was assayed against Serine/threonine-protein kinase 10 (Homo sapiens, UniProt O94804).
Sequence of Serine/threonine-protein kinase 10 (O94804 whole entry): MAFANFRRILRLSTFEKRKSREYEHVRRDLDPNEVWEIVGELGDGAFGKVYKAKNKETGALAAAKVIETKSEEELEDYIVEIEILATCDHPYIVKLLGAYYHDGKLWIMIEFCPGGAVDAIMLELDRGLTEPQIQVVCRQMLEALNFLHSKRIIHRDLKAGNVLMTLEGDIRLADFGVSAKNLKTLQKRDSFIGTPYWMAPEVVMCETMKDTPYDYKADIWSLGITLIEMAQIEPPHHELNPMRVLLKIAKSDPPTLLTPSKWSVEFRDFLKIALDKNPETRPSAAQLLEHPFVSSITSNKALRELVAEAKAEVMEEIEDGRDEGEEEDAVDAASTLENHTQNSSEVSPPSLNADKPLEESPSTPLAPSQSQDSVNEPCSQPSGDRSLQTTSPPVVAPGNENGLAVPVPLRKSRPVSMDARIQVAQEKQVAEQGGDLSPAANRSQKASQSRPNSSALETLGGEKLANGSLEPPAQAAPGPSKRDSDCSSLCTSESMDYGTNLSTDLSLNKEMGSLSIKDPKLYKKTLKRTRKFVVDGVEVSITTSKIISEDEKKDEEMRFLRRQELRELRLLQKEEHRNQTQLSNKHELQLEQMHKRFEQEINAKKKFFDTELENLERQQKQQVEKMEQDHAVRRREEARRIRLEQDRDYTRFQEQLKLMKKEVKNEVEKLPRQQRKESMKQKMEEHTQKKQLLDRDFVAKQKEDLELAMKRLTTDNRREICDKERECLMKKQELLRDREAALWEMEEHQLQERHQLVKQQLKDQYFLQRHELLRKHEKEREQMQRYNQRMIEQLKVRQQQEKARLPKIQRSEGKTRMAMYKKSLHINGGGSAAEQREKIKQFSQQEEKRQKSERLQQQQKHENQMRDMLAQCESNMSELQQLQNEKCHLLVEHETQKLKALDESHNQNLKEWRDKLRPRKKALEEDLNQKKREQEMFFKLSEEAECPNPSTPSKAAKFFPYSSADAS
With `Cc1cc(-c2cc(O)ccc2Cl)cc2nnc(Nc3ccc(OCCN4CCCC4)cc3)nc12` the Kd was > 30 µM (inactive).
In the case of `CCN1CCN(Cc2ccc(-c3cc4c(N[C@H](C)c5ccccc5)ncnc4[nH]3)cc2)CC1` [AEE-788], the Kd was 42.6 µM (active).
With `Cn1ncc(Cl)c1-c1cc(C(=O)N[C@H](CN)Cc2cccc(F)c2)sc1Cl` [AFURESERTIB] the Kd was > 30 µM (inactive).

These compounds were tested against Ribosomal protein S6 kinase alpha-1 (Homo sapiens, UniProt Q15418).
Sequence of Ribosomal protein S6 kinase alpha-1 (Q15418 whole entry): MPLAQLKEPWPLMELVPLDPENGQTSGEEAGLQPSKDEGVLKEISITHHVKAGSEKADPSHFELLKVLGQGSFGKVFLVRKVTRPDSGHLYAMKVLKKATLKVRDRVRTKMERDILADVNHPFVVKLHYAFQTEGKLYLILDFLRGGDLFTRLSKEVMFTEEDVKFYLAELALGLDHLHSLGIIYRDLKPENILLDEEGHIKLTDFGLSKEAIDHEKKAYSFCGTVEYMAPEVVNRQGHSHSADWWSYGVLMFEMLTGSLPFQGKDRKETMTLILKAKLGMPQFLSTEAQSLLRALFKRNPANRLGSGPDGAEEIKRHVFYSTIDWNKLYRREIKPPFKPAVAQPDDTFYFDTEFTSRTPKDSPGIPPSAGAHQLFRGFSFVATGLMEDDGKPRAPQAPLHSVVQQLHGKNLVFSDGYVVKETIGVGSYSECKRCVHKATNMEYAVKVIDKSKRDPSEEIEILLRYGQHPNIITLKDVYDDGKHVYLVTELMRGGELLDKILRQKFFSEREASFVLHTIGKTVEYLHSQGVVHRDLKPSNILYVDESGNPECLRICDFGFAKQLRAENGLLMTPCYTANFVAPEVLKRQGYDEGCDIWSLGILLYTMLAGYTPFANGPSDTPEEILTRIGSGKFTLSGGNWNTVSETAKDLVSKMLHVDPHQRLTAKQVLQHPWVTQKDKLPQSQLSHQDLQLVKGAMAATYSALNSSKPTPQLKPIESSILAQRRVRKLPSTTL
In the case of `Cc1cc(-c2cc(O)ccc2Cl)cc2nnc(Nc3ccc(OCCN4CCCC4)cc3)nc12`, the Kd was > 30 µM (inactive).
In the case of `CCN1CCN(Cc2ccc(-c3cc4c(N[C@H](C)c5ccccc5)ncnc4[nH]3)cc2)CC1` [AEE-788], the Kd was > 30 µM (inactive).
With `Cn1ncc(Cl)c1-c1cc(C(=O)N[C@H](CN)Cc2cccc(F)c2)sc1Cl` [AFURESERTIB] the Kd was > 30 µM (inactive).

What follows are compounds tested against Serine/threonine-protein kinase SIK3 (Homo sapiens, UniProt Q9Y2K2).
Sequence of Serine/threonine-protein kinase SIK3 (Q9Y2K2 whole entry): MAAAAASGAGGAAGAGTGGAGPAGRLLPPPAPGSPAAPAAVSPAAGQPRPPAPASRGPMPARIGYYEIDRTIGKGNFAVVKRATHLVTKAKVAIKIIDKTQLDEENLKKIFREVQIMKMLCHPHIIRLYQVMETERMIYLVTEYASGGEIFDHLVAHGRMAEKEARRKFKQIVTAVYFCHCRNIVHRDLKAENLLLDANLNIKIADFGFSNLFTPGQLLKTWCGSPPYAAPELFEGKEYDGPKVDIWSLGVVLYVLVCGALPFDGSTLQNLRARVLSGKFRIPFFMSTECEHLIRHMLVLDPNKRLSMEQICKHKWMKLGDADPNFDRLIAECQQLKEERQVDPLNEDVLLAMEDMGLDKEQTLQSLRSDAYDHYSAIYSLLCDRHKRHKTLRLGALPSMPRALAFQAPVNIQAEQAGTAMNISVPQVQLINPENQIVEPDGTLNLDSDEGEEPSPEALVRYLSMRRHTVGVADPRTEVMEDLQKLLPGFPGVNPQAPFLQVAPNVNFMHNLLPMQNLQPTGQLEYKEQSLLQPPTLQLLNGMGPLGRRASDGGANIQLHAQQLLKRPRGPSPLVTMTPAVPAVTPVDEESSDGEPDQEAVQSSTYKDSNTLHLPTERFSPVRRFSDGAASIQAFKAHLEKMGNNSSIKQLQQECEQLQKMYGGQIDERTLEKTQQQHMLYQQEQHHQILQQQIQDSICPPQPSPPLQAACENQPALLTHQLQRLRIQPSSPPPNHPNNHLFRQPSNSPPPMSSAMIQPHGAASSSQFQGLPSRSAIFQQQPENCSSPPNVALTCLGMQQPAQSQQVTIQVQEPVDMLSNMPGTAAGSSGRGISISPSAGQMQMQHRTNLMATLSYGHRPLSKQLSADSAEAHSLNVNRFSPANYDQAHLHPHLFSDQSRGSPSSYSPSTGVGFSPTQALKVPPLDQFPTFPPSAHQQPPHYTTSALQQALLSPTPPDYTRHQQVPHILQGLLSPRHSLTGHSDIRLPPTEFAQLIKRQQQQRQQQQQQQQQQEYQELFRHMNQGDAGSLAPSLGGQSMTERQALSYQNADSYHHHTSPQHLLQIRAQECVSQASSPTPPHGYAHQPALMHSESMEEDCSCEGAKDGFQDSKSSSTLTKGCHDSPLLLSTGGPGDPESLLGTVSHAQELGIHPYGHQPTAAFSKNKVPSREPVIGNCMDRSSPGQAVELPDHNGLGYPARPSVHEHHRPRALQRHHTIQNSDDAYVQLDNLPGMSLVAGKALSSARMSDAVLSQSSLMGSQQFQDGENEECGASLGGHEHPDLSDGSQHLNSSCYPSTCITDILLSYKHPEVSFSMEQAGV
`Cc1cc(-c2cc(O)ccc2Cl)cc2nnc(Nc3ccc(OCCN4CCCC4)cc3)nc12` was tested, and the Kd was 0.003 µM (active).
`CCN1CCN(Cc2ccc(-c3cc4c(N[C@H](C)c5ccccc5)ncnc4[nH]3)cc2)CC1` [AEE-788] was tested, and the Kd was > 30 µM (inactive).
In the case of `Cn1ncc(Cl)c1-c1cc(C(=O)N[C@H](CN)Cc2cccc(F)c2)sc1Cl` [AFURESERTIB], the Kd was > 30 µM (inactive).

The compounds below were run against T3, Serine/threonine-protein kinase D3 (Homo sapiens, UniProt O94806).
T3 sequence (O94806 whole entry): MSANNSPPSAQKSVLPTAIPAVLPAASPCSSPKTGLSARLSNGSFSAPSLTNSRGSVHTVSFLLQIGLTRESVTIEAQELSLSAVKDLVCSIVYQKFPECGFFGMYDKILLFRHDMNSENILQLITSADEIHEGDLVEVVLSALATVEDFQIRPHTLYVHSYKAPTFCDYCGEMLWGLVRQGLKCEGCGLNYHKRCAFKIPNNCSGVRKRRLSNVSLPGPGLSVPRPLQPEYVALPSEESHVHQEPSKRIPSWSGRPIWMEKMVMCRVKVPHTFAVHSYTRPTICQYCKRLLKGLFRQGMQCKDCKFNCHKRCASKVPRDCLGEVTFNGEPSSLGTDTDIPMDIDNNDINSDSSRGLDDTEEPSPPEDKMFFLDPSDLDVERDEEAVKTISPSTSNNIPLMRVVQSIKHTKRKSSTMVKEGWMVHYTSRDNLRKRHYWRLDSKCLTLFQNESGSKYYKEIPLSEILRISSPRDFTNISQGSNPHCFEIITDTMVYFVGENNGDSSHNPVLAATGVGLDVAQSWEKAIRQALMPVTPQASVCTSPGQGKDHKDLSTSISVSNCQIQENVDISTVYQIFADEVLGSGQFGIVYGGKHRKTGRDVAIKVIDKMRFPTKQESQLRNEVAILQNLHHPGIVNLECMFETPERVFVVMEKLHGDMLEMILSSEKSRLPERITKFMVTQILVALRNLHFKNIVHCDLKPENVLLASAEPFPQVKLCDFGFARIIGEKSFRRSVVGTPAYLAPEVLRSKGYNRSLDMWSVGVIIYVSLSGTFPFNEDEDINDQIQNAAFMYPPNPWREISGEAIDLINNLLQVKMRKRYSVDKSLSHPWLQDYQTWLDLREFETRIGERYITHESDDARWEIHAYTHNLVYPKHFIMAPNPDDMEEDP
Work on `Cc1cc(-c2cc(O)ccc2Cl)cc2nnc(Nc3ccc(OCCN4CCCC4)cc3)nc12` yielded a pKd of 8.52.
In the case of `CCN1CCN(Cc2ccc(-c3cc4c(N[C@H](C)c5ccccc5)ncnc4[nH]3)cc2)CC1` [AEE-788], the Kd was > 30 µM (inactive).
`Cn1ncc(Cl)c1-c1cc(C(=O)N[C@H](CN)Cc2cccc(F)c2)sc1Cl` [AFURESERTIB] was tested, and the Kd was > 30 µM (inactive).

These compounds were tested against T4, Calcium/calmodulin-dependent protein kinase type IV (Homo sapiens, UniProt Q16566).
T4 sequence (Q16566 whole entry): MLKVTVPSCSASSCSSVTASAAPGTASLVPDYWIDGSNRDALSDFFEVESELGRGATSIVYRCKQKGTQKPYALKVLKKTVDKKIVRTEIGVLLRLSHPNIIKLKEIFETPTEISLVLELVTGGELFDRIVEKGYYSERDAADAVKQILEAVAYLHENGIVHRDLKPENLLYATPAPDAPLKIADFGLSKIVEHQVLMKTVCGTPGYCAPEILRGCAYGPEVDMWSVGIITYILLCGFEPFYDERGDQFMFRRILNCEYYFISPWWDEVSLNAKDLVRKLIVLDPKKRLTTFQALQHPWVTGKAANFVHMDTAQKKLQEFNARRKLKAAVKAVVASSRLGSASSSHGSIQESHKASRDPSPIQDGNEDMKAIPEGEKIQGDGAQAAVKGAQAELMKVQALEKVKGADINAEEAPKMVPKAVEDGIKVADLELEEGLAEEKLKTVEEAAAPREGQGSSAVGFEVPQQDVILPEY
With `Cc1cc(-c2cc(O)ccc2Cl)cc2nnc(Nc3ccc(OCCN4CCCC4)cc3)nc12` the Kd was > 30 µM (inactive).
With `CCN1CCN(Cc2ccc(-c3cc4c(N[C@H](C)c5ccccc5)ncnc4[nH]3)cc2)CC1` [AEE-788] the Kd was > 30 µM (inactive).
`Cn1ncc(Cl)c1-c1cc(C(=O)N[C@H](CN)Cc2cccc(F)c2)sc1Cl` [AFURESERTIB] was tested, and the Kd was > 30 µM (inactive).
